Reference: US20250034216A1, “STEREOSELECTIVE COVALENT LIGANDS FOR ONCOGENIC AND IMMUNOLOGICAL PROTEINS” (The Scripps Research Institute, priority 2021, published 2025)

Key:
[1] = target: T1, recombinant FLAG-PSME1 WT or C22A (Homo sapiens, UniProt Q06323, C22A); experiment: SEC analysis by western blot; assay type: cell-based; conditions: 22Rv1 cells expressing FLAG-PSME1 C22A, 10 μM, 3 h
T1 construct: FLAG; expressed in transfected cells; host or cells: 22Rv1 pLenti3.3/TR (tetracycline-induced)
Procedure: (§1) For experiments using transiently overexpressed constructs (FLAG-PSME1 WT/C22A, HA-ACAT1 WT/C126A), Stable clonal 22Rv1 pLenti3.3/TR were transfected using polyethylenimine and treated with tetracycline ([…]) for 48 h prior to treatment with electrophilic probes.
(§2) Cells were lysed and fractioned by SEC. After acetone precipitation and resuspension, 4× gel loading buffer was added to eluates, and proteins were resolved using SDS-PAGE (4-20% acrylamide, Tris-glycine gel), and transferred to a nitrocellulose membrane. The membrane was blocked with 5% milk in Tris-buffered saline (20 mM Tris-HCl 7.6, 150 mM NaCl) with 0.1% tween (TBST) and incubated with primary antibody overnight. After TBST wash (3 times), the membrane was incubated with secondary antibody, washed with TBST again, developed with ECL western blotting detection reagents, and recorded on a Bio-Rad ChemiDoc MP. Relative band intensities were analyzed using ImageJ.

[2] = target: T2, recombinant FLAG-PSME1 WT or C22A (Homo sapiens, UniProt Q06323); experiment: SEC analysis by western blot; assay type: cell-based; conditions: 22Rv1 cells expressing FLAG-PSME1 WT, 10 μM, 3 h
T2 construct: FLAG; expressed in transfected cells; host or cells: 22Rv1 pLenti3.3/TR (tetracycline-induced)
Procedure: as §1, §2

[3] = target: T3, recombinant FLAG-PSME1 (PSME1_C22) (Homo sapiens, UniProt Q06323); experiment: Gel-based ABPP for PSME1 cysteine engagement; assay type: binding; conditions: HEK293T lysates expressing FLAG-PSME1, in vitro, then 2.5 μM MY-11B 30 min; read-out: IC50 for engaging PSME1_C22 (competition against MY-11B labeling)
T3 construct: FLAG (C); expressed in transfected cells; host or cells: HEK293T (lysate treated in vitro)
Procedure: C-terminally FLAG-tagged PSME1 WT or C22A were transiently expressed in HEK293T cells, harvested 48 hours later, then cells were divided into aliquots, flash frozen and stored at −80 C. On the day of the experiment, an aliquot of cells were thawed, lysed by sonication in ice-cold PBS supplemented with cOmplete protease inhibitors (1 tablet/10 mL of PBS). normalized to 2.0 mg/mL, and divided into 25 μL aliquots. 1 μL of DMSO or compound (25× stock) was incubated with lysates for 1.5 hours at RT, followed by incubation with 1 μL of 62.5 μM MY-11B click probe (final concentration […]) for an additional 30 minutes. Reagents for the CuAAC click reaction were pre-mixed prior to addition to the samples. After 1 hour of click labeling, 4×SDS running buffer was added to samples, which were then analyzed by SDS-PAGE. ImageJ was used to quantify rhodamine band intensities, and GraphPad PRISM Version 9.0.0 was used to generate IC50 curves (four-parameter variable slope least squares regression).

[4] = tested on: DDX42; experiment: SEC-MS elution profile; assay type: cell-based, human; conditions: 22Rv1 cells, 20 μM, 3 h
Procedure: . Cell pellets were lysed by sonication (8 pulses, 40% power) in 600 μL ice-cold PBS supplemented with cOmplete protease inhibitors (1 tablet/10 mL of PBS), ultracentrifuged for 20 min at 100,000 g, then normalized to a standardized concentration (typically 1.5 to 2.5 mg/mL). Clarified lysate was injected into a Superdex 200 Increase 10/300 GL column attached to an AKTA pure FPLC system. Proteins were fractionated using an isocratic gradient (PBS) running at 0.5 mL/min into 5 fractions 2 mL wide, beginning at 8 mL and ending at 18 mL. Eluate was collected into 15 mL tubes containing 12 mL of acetone at 4C. After completion of one set of 5 fractions, the above protocol was repeated a second time for the remaining 5 fractions. Proteins were precipitated overnight at −20 C, then spun at 4500 g for 20 minutes, yielding a white protein pellet. […]
Data processing: Fractional distributions for each peptide-spectra match with a total TMT reporter ion intensity were calculated by dividing the reporter ion intensity for each TMT channel by the summed intensity across the 5 TMT channels corresponding to a single treatment condition (Equation 1). […] Euclidean distances (SE shift scores, Equation 2) were calculated using the average elution profile for each protein across replicates, combined by treatment condition and cell line. […]

T3 sequence (Q06323 whole entry): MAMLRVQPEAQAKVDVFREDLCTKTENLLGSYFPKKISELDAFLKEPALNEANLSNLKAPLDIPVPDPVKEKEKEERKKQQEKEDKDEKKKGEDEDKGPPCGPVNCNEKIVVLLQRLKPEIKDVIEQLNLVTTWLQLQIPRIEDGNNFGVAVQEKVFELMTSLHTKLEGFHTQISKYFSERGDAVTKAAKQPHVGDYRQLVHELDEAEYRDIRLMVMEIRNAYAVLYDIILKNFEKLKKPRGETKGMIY
T2 sequence (Q06323 whole entry, stated change not applied): as the sequence (Q06323 whole entry) above
T1 sequence (Q06323 whole entry C22A): as the sequence (Q06323 whole entry) above, with C22A counted along it

`C=CC(=O)N1C[C@H](c2ccc(Br)cc2)[C@@H]1C(=O)Nc1cccc2cccnc12` [MY-1B, (2R,3S)-1-acryloyl-3-(4-bromophenyl)-N-(quinolin-8-yl)azetidine-2-carboxamide] was tested, and the “SEC size shift of recombinant PSME1 C22A mutant” value [1] was “unaffected” and the “SEC size shift of recombinant WT-PSME1” value [2] was “clear size shift”.
For `CC#CC(=O)N1C[C@H](c2ccc(Br)cc2)[C@@H]1C(=O)Nc1cccc2cccnc12` [MY-45B, (2R,3S)-3-(4-bromophenyl)-1-(but-2-ynoyl)-N-(quinolin-8-yl)azetidine-2-carboxamide], the IC50 [3] was ~0.4 µM.
With `C=CC(=O)N1[C@H](c2ccc3c(c2)OCO3)c2[nH]c3ccccc3c2C[C@H]1C(=O)N1CCOCC1` [WX-02-23, 1-((1R,3S)-1-(benzo[d][1,3]dioxol-S-yl)-3-(morpholine-4-carbonyl)-1,3,4,9-tetrahydro-2H-pyrido [3,4-b]indol-2-yl)prop-2-en-1-one] the “SEC migration shift of DDX42” value [4] was “stereoselectively caused this same size shift”.
